Measured values: US20250127790A1, “COMBINATION THERAPY USING VPS34 INHIBITORS” (Deciphera Pharmaceuticals, LLC, priority 2021, published 2025)

Key:
[1] = test system: 786-O renal cell carcinoma cells; assay: Cytokine secretion assay (MSD) with siRNA knockdown, 786-O cells; assay type: cell-based, human; settings: 24 h; for CCL5 and CXCL10 secretion with siRNA knockdown of CGAS: siCGAS; for CCL5 and CXCL10 secretion with siRNA knockdown of CGAS / increase in CCL5 protein secretion / increase in CXCL10 protein secretion / CCL5 and CXCL10 protein secretion with siRNA knockdown of STING: 2 μM; for CCL5 and CXCL10 secretion with siRNA knockdown of CGAS / CCL5 and CXCL10 protein secretion with siRNA knockdown of STING / secretion of CCL5 or CXCL10 with siRNA knockdown of TBK1: vs compound alone; for increase in CCL5 protein secretion / increase in CXCL10 protein secretion: siRNA against non-specific controls (siSCR); for CCL5 and CXCL10 protein secretion with siRNA knockdown of STING: siSTING; for secretion of CCL5 or CXCL10 with siRNA knockdown of TBK1: siTBK1, 2 μM
Procedure: 786-O cells were transfected with scrambled siRNA control (siSCR) or siRNA targeting TBK1 (siTBK1), STING (siSTING) or CGAS (siCGAS). After 48 h cells were treated with DMSO or 2 μM of VPS34 inhibitor (Compound 1 or Compound 2) for 24 h. Cell culture medium was centrifuged at 1600 rpm for 10 min at 4° C. and obtained supernatant stored at −80° C. Cytokine levels were quantified using following Meso Scale Discovery (MSD) assays: human R-PLEX RANTES/CCL5 (#F21ZN), U-PLEX CXCL10/IP-10 (#K151UFK). Assays were run on the SECTOR Quickplex Imager and analyzed using Discovery Workbench version 4.0 (MSD).

[2] = test system: CT26 colorectal cancer cells; assay: qRT-PCR, combination with cGAMP, CT26 cells; assay type: cell-based, Mouse; settings: 24 hours, 5 μM Compound 1 or 10 μM Compound 2, 10 mg/mL cGAMP
Procedure: (§1) CT26 cells were treated for 24 hours with DMSO or VPS34 inhibitors (5 μM Compound 1 or 10 μM Compound 2) in combination with 10 mg/mL STING agonist cGAMP (green bars). Cells were washed with PBS and RNA was isolated using the PureLink RNA kit (#12183018A, Thermo Fisher Scientific) according to the manufacturer's protocol. Genomic DNA was removed using DNA-binding columns (RNeasy plus kit, #74134, Qiagen) and/or DNase treatment (#12185010, Thermo Fisher Scientific). RNA was quantified using NanoDrop (Thermo Fisher Scientific) and 50 ng/μL RNA was used for cDNA synthesis with SuperScript IV VILO Master Mix (#11756050, Thermo Fisher Scientific). Quantitative RT-PCR (qRT-PCR) was run with diluted cDNA (1:25 or 1:12.5), PowerUp SYBR Green Master Mix (#A25741, Thermo Fisher Scientific), and 200 nM primers (see below) on a CFX Connect RT-PCR system (BioRad). Data was analyzed using the ΔΔCT method. Results are mean±SEM of three independent experiments.

[3] = test system: YUMM 1.7 melanoma cells; assay: qRT-PCR, combination with cGAMP, YUMM1.7 cells; assay type: cell-based, Mouse; settings: 24 hours, 5 μM Compound 1 or 10 μM Compound 2, 10 mg/ml cGAMP
Procedure: as §1, with “YUMM1.7” for “CT26”, “mg/ml” for “mg/mL”

[4] = test system: Renca renal cell carcinoma cells; assay: qRT-PCR, combination with ADU-S100, Renca cells; assay type: cell-based, Mouse; settings: for IFNB1 mRNA expression: 2 μM Compound 1, 10 μM ADU-S100, 4 h; for CCL5 mRNA expression / CXCL10 mRNA expression: 2 μM Compound 1, 10 μM ADU-S100, 24 h; for increase in IFNB1, CCL5 and CXCL10 with siRNA knockdown of STING: siSTING
Procedure: as §1, with “Renca cells were grown in RPMI-1640 medium containing 10% fetal bovine serum. Cells were then incubated for 2 days at 37 degrees Celsius, 5% CO2, and 95% humidity. Renca cells were reversely transfected with scrambled siRNA control (siSCR) or siRNA targeting STING (siSTING). After transfection for 48 h, cells” for “CT26 cells”, “treated” for “treated for 24 hours”, “DMSO control, 2” for “DMSO or VPS34 inhibitors (5”, “or 2” for “or 10”, “Compound 2” for “Compound 2)”, “10 μM ADU-S100 for 4 h (for Ifnb1) or 24 h (Ccl5 and Cxcl10).” for “10 mg/mL STING agonist cGAMP (green bars).”

[5] = test system: Renca renal cell carcinoma cells; assay: IncuCyte live-cell imaging, Caspase 3/7 activity, Renca cells; assay type: cell-based; settings: 2 μM Compound 1, ADU-S100, 24 hours
Procedure: Renca cells were treated with a combination of DMSO or 2 μM Compound 1 alone or in combination with STING agonist ADU-S100 for 24 hours. Treatment with 1 μM staurosporine was used as a positive control for apoptosis induction. To assess cell proliferation, 1000 cells/well were plated in 96-well plates. After 24 h, cells were treated with compounds in 100 μL complete medium. Phase-contrast images (10×) were acquired every 3 h for 24-72 h and cell confluence (%) was calculated using the IncuCyte S3 live-cell analysis system (Sartorius). For monitoring apoptosis, 5 μM of IncuCyte Caspase-3/7 Green Dye (#4440, Sartorius) was added to the medium at the time of treatment. Both phase-contrast and green fluorescent images were captured. Caspase 3/7 induction was calculated by counting green fluorescent objects per mm^2 and dividing it by the percentage of cell confluency.

[6] = test system: THP-1 dual reporter cells; assay: Cytokine secretion in wild-type and STING knockout THP-1 dual reporter cells; assay type: cell-based, human; settings: wild-type THP-1 dual reporter cells

Structure (SMILES)	CCL5 and CXCL10 secretion with siRNA knockdown of CGAS [1]	increase in CCL5 protein secretion [1] [fold]	increase in CXCL10 protein secretion [1] [fold]	CCL5 and CXCL10 protein secretion with siRNA knockdown of STING [1]	secretion of CCL5 or CXCL10 with siRNA knockdown of TBK1 [1]	CCL5 mRNA expression [2]	CXCL10 mRNA expression [2]	CCL5 mRNA expression [3]	CXCL10 mRNA expression [3]	IFNB1 mRNA expression [4]	CCL5 mRNA expression [4]	CXCL10 mRNA expression [4]	increase in IFNB1, CCL5 and CXCL10 with siRNA knockdown of STING [4]	Caspase 3/7 activity [5]	secretion of CCL5 [6]	secretion of CXCL10 [6]	secretion of IFNβ [6]
C[C@@H]1COCCN1c1cc(=O)n2c(n1)N(Cc1cncc(Cl)c1)[C@H](C(F)(F)F)CC2 [Compound 2, (S)-9-((5-chloropyridin-3-yl)methyl)-2-((R)-3-methylmorpholino)-8-(trifluoromethyl)-6,7,8,9-tetrahydro-4H-pyrimido[1,2-a]pyrimidin-4-one]	near complete ablation	~2	~2	near complete ablation	decreased secretion	increased	increased	increased	did not increase								
Nc1ncnc2c1ncn2[C@@H]1O[C@@H]2COP(=O)([S-])O[C@@H]3[C@H](O)[C@@H](COP([O-])(=S)O[C@H]2[C@H]1O)O[C@H]3n1cnc2c(N)ncnc21.[Na+].[Na+] (stereo partly shown) [ADU-S100, reference compound]										increased	increased	increased	blocked	mild effects	stimulates	stimulates	stimulates
C[C@@H]1COCCN1c1cc(N2CCCC[C@@H]2C(F)(F)F)[nH]c(=O)c1 [Compound 1, 4-((R)-3-methylmorpholino)-6-((R)-2-(trifluoromethyl)piperidin-1-yl)pyridin-2(1H)-one]	near complete ablation	~2	~2	near complete ablation	decreased secretion	increased	increased	increased	did not increase	did not significantly increase	did increase	did increase	blocked	increased			
